Assay results: patent US5691340A, “Benzopyran derivatives” (Adir et Compagnie, priority 1994, dated 1997)

What was measured:
[1] = test system: man; details: in vivo; cited from earlier work
[2] = test system: σ receptors; details: cited from earlier work
[3] = target: σ receptor; assay: In vitro binding to σ receptors ([3H]-DTG or [3H]-3-PPP); design: species or system calf; details: [3H]-DTG
Protocol: (§1) The products are tested on each receptor at 5 different concentrations (10^-5 M, 10^-6 M, 10^-7 M, 10^-8 M and 10^-9 M) in triplicate. When the binding coefficient IC50 (concentration of product which displaces 50% of the radioligand) is less than a concentration of 10^-6 M, the Ki is measured by using 12 concentrations of the product.
(§2) The receptors for which the affinity of the compounds of the invention was determined, the tissue chosen, the concentration used for determining the non-specific fraction and the radioligand used to label the receptor are shown in Table A.
10^-6 M Calf hippocampus

[4] = test system: hypermotility induced by amphetamine; assay: Antagonism of hypermotility induced by amphetamine; format: in vivo, NMRI-CERJ mice; details: 64 mg/kg, IP, mice; d-amphetamine 4 mg.kg^-1 IP
Protocol: This test was developed by Costall B., et al. (Brain Research, 1977, 123, 89-111).
Groups of 10 NMRI-CERJ mice are injected intraperitoneally (IP) with 4 mg.kg^-1 of d-amphetamine immediately after the compound to be tested (also injected by the IP route) and the mice are placed in an activity cage for 30 minutes.
The number of interruptions of photoelectric cells is recorded, as well as the stereotypical behavior.
The activity of the tested compounds is expressed as percentage of antagonism of the hyperactivity induced by amphetamine.

[5] = target: T1, σ1 receptor (Cavia porcellus, UniProt Q60492); assay: In vitro binding to σ1 receptors ([3H]-Pentazocine); design: species or system guinea pig
T1 construct: Guinea pig brain; from tissue; host or cells: guinea pig brain
Protocol: as §1, §2

[6] = target: T2, σ2 receptor (Cavia porcellus, UniProt H0V073); assay: In vitro binding to σ2 receptors ([3H]-DTG); design: species or system guinea pig
T2 construct: Guinea pig brain; from tissue; host or cells: guinea pig brain
T2 sequence (H0V073 1-176): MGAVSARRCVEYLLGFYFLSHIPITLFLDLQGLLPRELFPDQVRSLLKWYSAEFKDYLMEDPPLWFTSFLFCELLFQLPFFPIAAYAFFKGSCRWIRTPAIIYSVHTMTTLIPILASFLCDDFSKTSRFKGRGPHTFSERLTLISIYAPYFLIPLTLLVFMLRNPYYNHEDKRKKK
Protocol: as §1, §2

[7] = test system: hyperactivity induced by N-allylnormetazocine; assay: Antagonism of the hyperactivity induced by N-allylnormetazocine; format: in vivo; details: 32 mg.kg^-1, rats; N-allylnormetazocine 50 mg/kg subcutaneous
Protocol: This test was developed by Snyder S. H. et al. (J. Neuropsychiatry, 1989, 1,7-15).
Measurement of the hyperactivity induced by this product is therefore used as an alternative model for detecting the antipsychotic activity of the compounds which have an effect on σ receptors.
A group of 12 rats is treated with the compound to be tested before subcutaneous administration of 50 mg/kg of N-allylnormetazocine. 30 minutes later, the animals are placed in an activity cage for 30 minutes.
Haloperidol is used as reference compound.

T1 sequence (Q60492 whole entry): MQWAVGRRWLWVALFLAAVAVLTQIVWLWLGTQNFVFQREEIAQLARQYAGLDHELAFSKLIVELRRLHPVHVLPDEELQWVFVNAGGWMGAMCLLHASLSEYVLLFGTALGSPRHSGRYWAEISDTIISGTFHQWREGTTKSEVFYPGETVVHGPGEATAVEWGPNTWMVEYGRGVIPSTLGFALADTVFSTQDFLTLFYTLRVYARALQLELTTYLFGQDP

Structure (SMILES) | IC50 [3] [nM] | percentage of antagonism of the hyperactivity induced by amphetamine [4] [%] | also measured
C=CCN1CCC2(C)c3cc(O)ccc3CC1C2C (single isomer, unassigned) [N-Allylnormetazocine] | – | – | psychotic behavior in man [1]: induces psychotic behavior in man; agonism at σ receptors [2]: prototype agonist for σ receptors
Fc1ccc2c(c1)CC(CN1CCN(Cc3ccccc3)CC1)O2 (stereo not shown) [Example 1, 1-[(5-FLUORO-2,3-DIHYDROBENZOFUR-2-YL) METHYL]-4-BENZYLPIPERAZINE] | 9.1 | 43 | –
COc1ccc2c(CN3CCN(Cc4ccccc4)CC3)cc(=O)oc2c1 [Example 3, 1-[(7-METHOXY-2-OXOCHROM-3-EN-4-YL) METHYL]-4-BENZYLPIPERAZINE] | 1.3 | – | –
c1ccc(CN2CCN(CC3Cc4ccccc4O3)CC2)cc1 (stereo not shown) [Example 4, 1-[(2,3-DIHYDROBENZOFUR-2-YL) METHYL]-4-BENZYLPIPERAZINE] | 7 | 61 | –
CC(CN1CCN(Cc2ccccc2)CC1)Oc1ccccc1 (stereo not shown) [Example 9, 1-(2-PHENOXYPROPYL)-4-BENZYLPIPERAZINE] | – | – | IC50 [5]: 1.3 nM; IC50 [6]: 40 nM; antagonism of the hypermotility induced by N-allylnormetazocine [7]: 42%
